Measurements: US6576596B1, “Substituted 2-benzoyl-cyclohexan-1,3-diones with herbicidal effect” (BASF Aktiengesellschaft, priority 1997, dated 2003)

What was measured:
Type in all cases: in vivo
[1] = tested on: Sinapis alba; test: greenhouse herbicidal test, post-emergence treatment; details: 0.125 or 0.0625 kg/ha (of a.s.), Sinapis alba (white mustard)
Text: (§1) The culture containers used were plastic flowerpots containing loamy soil with approximately 3.0% of humus as the substrate. The seeds of the test plants were sown separately for each species.
(§2) For the post-emergence treatment, the test plants were first grown to a plant height of 3 to 15 cm, depending on the plant habit, and only then treated with the active compounds which had been suspended or emulsified in water. The test plants for this purpose were either sown directly and grown in the same containers, or they were first grown separately as seedlings and transplanted into the test containers a few days prior to treatment. The rate of application for the post-emergence treatment was 0.125.or 0.0625 kg/ha of a.s. (active substance).
(§3) Depending on the species, the plants were kept at 10-25° C. or 20-35° C. The test period extended over 2 to 4 weeks. During this time, the plants were tended, and their response to the individual treatments was evaluated.
(§4) Evaluation was carried out using a scale from 0 to 100. 100 means no emergence of the plants, or complete destruction of at least the aerial parts, and 0 means no damage, or normal course of growth.
(§5) The plants used in the greenhouse experiments belonged to the following species: […]

[2] = tested on: Echinochloa crus galli; test: as above; details: 0.125 or 0.0625 kg/ha (of a.s.), Echinochloa crus galli (barnyardgrass)
Text: as §1, §2, §3, §4, §5

[3] = tested on: Chenopodium album; test: as above; details: 0.125 or 0.0625 kg/ha (of a.s.), Chenopodium album (lambsquarters)
Text: as §1, §2, §3, §4, §5

[4] = tested on: Zea mays; test: greenhouse test, post-emergence treatment, crop tolerance; details: 0.125 or 0.0625 kg/ha (of a.s.)
Text: as §1, §2, §3, §4, §5

SMILES: CCON=Cc1c(S(C)(=O)=O)ccc(C(=O)C2C(=O)CC(C)(C)CC2=O)c1Cl [Compound 2.07, 2-(2-Chloro-3-ethoxyiminomethyl-4-methylsulfonylbenzoyl)-5,5-dimethyl-1,3-cyclohexanedione]
- herbicidal activity against harmful plants [1]: very good activity
- herbicidal activity against harmful plants [2]: very good activity
- herbicidal activity against harmful plants [3]: very good activity
- tolerance in crop plant maize [4]: well tolerated
